Source: patent US20190353647A1, “NOVEL REAL-TIME MULTIPLEXED, MULTI-COLOR BIOLUMINESCENCE RESONANCE ENERGY TRANSFER ASSAY, APPARATUS, AND USES THEREOF” (Universite de Bordeaux, priority 2016, published 2019)

Biological target: T1, TRPV1 (Homo sapiens, UniProt Q8NER1)
T1 construct: expressed in transfected cells; host or cells: HEK293T
Assay: Intramolecular BRET assay, YFP-TRPV1-Luc probe in HEK293T cells
Assay type: cell-based
Settings: for Effect on CAPS-induced BRET increase: intramolecular test
Description: They were referred as YFP and Luc for short in the rest of the manuscript. The cDNA of Luc and YFP were first cloned together using a three-piece ligation in the BamHI/XhoI site of pcDNA3.1(+) (Invitrogen, Carlsbad, Calif., USA), yielding two expression vectors pcDNA3.1 YFP-Luc where YFP was cloned in-fusion at the N-terminal of Luc, and pcDNA3.1 Luc-YFP where Luc was cloned in-fusion at the N-terminal of YFP. Both YFP and Luc were amplified by PCR from the pcDNA3-YFP-EPAC-Luc vector. Luc was cloned either at the N-terminal of YFP as a HindIII-EcoRI fragment (primers used: “Luc_HindIII_ATGN-term sense” and “Luc_no Stop_EcoRI_N-term antisense”) or at the COOH-terminal of YFP as an EcoRI-XhoI fragment (primer used: “Luc_EcoRI_ATG_C-term sense” and “Luc_XhoI_Stop_C-term antisense”). In parallel, YFP was cloned either at the N-terminal of Luc as a HindIII-EcoRI fragment (primers used: “YFP_HindIII_ATG_N-term sense” and “YFP_no Stop_EcoRI_N-term antisense”) or at the COOH-terminal of Luc as a EcoRI-XhoI fragment (primer used: “YFP_EcoRI_ATG_C-term sense” and “YFP_XhoI_Stop_C-term antisense”). The sequence joining Luc and YFP sequence encoded […] NO: 18) as a linker, and contained an AgeI restriction site. The YFP-hTRPV1-Luc expression vector was obtained by subcloning the human TRPV1 cDNA from the pDONR201-hTRPV1 vector (Harvard Medical School PlasmID Repository, clone HsCD00081472) as an EcoRI PCR fragment in the EcoRI site of the vector pcDNA3.1 YFP-Luc (primer used: “hTRPV1_EcoRI_Fus_Sense” and “hTRPV1_EcoRI_Fus_antisense”). The hTRPV1-Luc expression vector was obtained by subcloning the cDNA of hTRPV1 as a HindIII-EcoRI fragment in place of the YFP in the HindIII-EcoRI site of the pcDNA3.1 YFP-Luc vector (primer used: “hTRPV1_HindIII_ATG_Sense” and “hTRPV1_EcoRI_Fus_antisense”). The Luc-hTRPV3 expression vector was obtained by subcloning the cDNA of hTRPV3 (Harvard Medical School PlasmID Repository, clone HsCD00341603) as a AgeI-XhoI fragment in place of the YFP in the AgeI-XhoI sites of the pcDNA3.1 Luc-YFP vector (primer used: “hTRPV3_AgeI_ATG_Sense” and “[…]_XhoI_antisense”). The hTRPV4-Luc expression vector was obtained by subcloning the cDNA of hTRPV4 as a BamHI-AgeI fragment in place of the YFP in the BamHI-AgeI site of the pcDNA3.1 YFP-Luc vector (primer used: “hTRPV4_BamHI_ATG_Sense” and hTRPV4_AgeI_Fus_antisense”). In each case, the sequence joining the cDNA of interest and either Luc or YFP sequence encoded […] NO: 18) as a linker. HEK293T cells were maintained in Dulbecco's modified Eagle's medium-high Glucose (DMEM) (D6429, Sigma) supplemented with 10% fetal bovine serum, 100 units mL-1 penicillin and streptomycin. Twenty-four hours before transfection, cells were seeded at a density of 500,000 cells in 6-well dishes. Transient transfections were performed using polyethylenimine (PEI, linear, Mr 25,000; catalogue number 23966 Polysciences, Inc., Warrington, Pa., USA) with a PEI:DNA ratio of 4:1. […] The amount of transfected DNA was completed to a total of 2 μg with pcDNA3.1 empty vector. After overnight incubation, transfected cells were then detached, resuspended in DMEM w/o red phenol (Ref 21063-029, ThermoFisher scientific, Waltham, Mass., USA) and replated at a density of 10^5 cells per well in 96-well white plates with clear bottoms (Greiner Bio one, Courtaboeuf, France) pre-treated with D-polylysine (Sigma) for reading with the Tristar2 luminometer (Berthold Technologies, Bad Wildbad, Germany) or onto 12 mm diameter glass coverslips ([…], Braunschweig, Germany) treated with poly-L-lysine for the reading with the SpectraPro 2300i spectrometer (Acton Optics, Acton, Mass., USA). Cells were left in culture for 24 h before being processed for the BRET assay.

[1] = temperature rise from 25 to 42° C.

T1 sequence (Q8NER1 whole entry): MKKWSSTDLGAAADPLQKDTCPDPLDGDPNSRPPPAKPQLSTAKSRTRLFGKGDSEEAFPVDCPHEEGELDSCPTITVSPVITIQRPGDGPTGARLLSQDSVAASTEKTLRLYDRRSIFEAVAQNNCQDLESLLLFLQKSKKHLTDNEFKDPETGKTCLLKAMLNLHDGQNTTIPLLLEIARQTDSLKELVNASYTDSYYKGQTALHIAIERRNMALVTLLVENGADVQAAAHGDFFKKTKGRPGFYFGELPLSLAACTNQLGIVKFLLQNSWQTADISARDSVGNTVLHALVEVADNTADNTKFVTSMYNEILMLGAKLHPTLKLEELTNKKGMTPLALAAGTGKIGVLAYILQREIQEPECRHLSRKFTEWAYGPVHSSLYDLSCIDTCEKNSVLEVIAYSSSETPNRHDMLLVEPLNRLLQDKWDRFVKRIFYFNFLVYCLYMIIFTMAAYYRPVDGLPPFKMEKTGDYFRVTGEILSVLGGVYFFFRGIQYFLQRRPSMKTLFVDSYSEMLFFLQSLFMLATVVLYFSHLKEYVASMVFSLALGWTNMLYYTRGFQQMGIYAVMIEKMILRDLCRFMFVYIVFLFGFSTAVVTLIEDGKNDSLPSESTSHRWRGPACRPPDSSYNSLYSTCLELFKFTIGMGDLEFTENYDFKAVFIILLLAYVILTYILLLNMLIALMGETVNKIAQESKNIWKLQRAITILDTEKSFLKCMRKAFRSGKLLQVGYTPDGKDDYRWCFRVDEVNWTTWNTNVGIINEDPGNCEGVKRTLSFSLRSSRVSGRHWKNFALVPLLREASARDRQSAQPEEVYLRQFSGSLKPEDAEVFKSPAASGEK

COc1cc(CNC(=O)CCCC/C=C/C(C)C)ccc1O [CAPS, Capsaicin]
Change of basal BRET signal: increased with a first order kinetic | Change in CAPS potency on temperature rise [1]: leftward shift | Change in maximal efficacy on temperature rise [1]: increase

CC(=O)Nc1nc2c(Oc3cc(-c4ccc(C(F)(F)F)cc4)ncn3)cccc2s1 [AMG517]
Effect on CAPS-induced BRET increase: inhibited

Oc1cc2c(cc1O)CN(C(=S)NCCc1ccc(Cl)cc1)CCC2 [CPZ, Capsazepine]
Temperature-dependent behaviour of the probe after preincubation (heating 25 to 50° C.): completely modified the temperature-dependent behaviour | Effect on CAPS-induced BRET increase: inhibited
